Laboratory results as given in ChEMBL document CHEMBL4739717, “Methods of treating cartilage disorders through inhibition of clk and dyrk” (2020).
Activity calls are given as the source filed them. No cut-off for these calls is given here.

How the values were obtained:
[1] = target: Dual specificity tyrosine-phosphorylation-regulated kinase 1A (Homo sapiens, UniProt Q13627); assay: Inhibition of recombinant DYRK1A (unknown origin) using Ser/Thr 18 peptide as substrate incubated for 1 hr in presence of ATP by FRET assay
[2] = target: Dual specificity protein kinase CLK3 (Homo sapiens, UniProt P49761); assay: Inhibition of recombinant CLK3 (unknown origin) using Ser/Thr 18 peptide as substrate incubated for 1 hr in presence of ATP by FRET assay
Sequence of Dual specificity protein kinase CLK3 (P49761 whole entry): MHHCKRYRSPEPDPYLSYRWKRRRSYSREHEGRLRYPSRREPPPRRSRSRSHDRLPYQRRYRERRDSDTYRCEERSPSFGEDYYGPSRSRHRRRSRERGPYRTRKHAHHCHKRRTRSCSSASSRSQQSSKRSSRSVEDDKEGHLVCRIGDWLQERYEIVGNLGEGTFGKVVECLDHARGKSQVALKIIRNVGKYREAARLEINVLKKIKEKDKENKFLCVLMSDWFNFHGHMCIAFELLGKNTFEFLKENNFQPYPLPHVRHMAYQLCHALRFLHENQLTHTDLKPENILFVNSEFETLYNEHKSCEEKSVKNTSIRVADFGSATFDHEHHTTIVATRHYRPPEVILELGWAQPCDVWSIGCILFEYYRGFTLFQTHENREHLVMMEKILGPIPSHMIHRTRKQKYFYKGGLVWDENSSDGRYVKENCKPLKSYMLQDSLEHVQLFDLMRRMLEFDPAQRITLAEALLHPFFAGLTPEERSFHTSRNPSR

Chondrocyte [3] = assay: Inhibition of IL1-beta induced MMP-13 expression levels in human chondrocytes assessed as MMP-13 levels incubated for 2hrs followed by IL1-beta stimulation and measured after 24 hrs by qRT-PCR analysis; assay type: functional; conditions: time 26.0 hrs
[4] = target: Dual specificity protein kinase CLK2 (Homo sapiens, UniProt P49760); assay: Inhibition of recombinant CLK2 (unknown origin) using Ser/Thr 6 peptide as substrate incubated for 1 hr in presence of ATP by FRET assay
Sequence of Dual specificity protein kinase CLK2 (P49760 whole entry): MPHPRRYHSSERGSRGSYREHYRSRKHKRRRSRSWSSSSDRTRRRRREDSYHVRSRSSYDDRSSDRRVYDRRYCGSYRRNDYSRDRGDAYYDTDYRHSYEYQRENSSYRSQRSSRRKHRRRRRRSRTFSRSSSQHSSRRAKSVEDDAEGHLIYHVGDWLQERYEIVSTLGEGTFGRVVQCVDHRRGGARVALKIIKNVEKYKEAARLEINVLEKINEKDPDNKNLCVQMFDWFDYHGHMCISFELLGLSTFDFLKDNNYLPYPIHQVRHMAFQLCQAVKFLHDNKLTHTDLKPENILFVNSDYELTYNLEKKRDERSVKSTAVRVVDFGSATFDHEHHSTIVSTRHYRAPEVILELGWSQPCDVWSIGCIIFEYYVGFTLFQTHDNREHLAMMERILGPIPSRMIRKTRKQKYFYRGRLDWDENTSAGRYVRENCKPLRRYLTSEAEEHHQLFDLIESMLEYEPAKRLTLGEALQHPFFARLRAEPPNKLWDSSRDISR

Chondrocyte [5] = assay: Inhibition of IL1-beta induced MMP1 expression levels in human chondrocytes assessed as MMP1 levels incubated for 2hrs followed by IL1-beta stimulation and measured after 24 hrs by qRT-PCR analysis; assay type: functional; conditions: time 26.0 hrs
[6] = Effect on Wnt signaling pathway in human SW480 cells harbouring TCF/LEF luciferase reporter gene and SP5-Luc reporter gene incubated for 36 to 48 hrs by luminescence assay; assay type: cell-based
[7] = Induction of chondrogenesis in human MSC assessed as incubated for 6 days by rhodamine B and Nile red staining based imaging analysis; assay type: functional; conditions: bmmsc
[8] = Induction of chondrogenesis in human MSC assessed as maximum activity at 1700 nM incubated for 6 days by rhodamine B and Nile red staining based imaging analysis relative to control; assay type: functional; conditions: BMMSC, 144 h, time 6 day
[9] = Induction of chondrogenesis in human MSC assessed as maximum activity at 20.58 nM incubated for 6 days by rhodamine B and Nile red staining based imaging analysis relative to control; assay type: functional; conditions: BMMSC, 144 h, time 6 day
[10] = Induction of chondrogenesis in human MSC assessed as maximum activity at 61.73 nM incubated for 6 days by rhodamine B and Nile red staining based imaging analysis relative to control; assay type: functional; conditions: BMMSC, 144 h, time 6 day
[11] = Inhibition of IL1-beta induced MMP3 expression levels in human chondrocytes assessed as MMP3 levels incubated for 2hrs followed by IL1-beta stimulation and measured after overnight incubation by LANCE assay; assay type: functional, cell-based; conditions: Chondrocyte
[12] = Induction of chondrogenesis in human MSC assessed as maximum activity at 2700 nM incubated for 6 days by rhodamine B and Nile red staining based imaging analysis relative to control; assay type: functional; conditions: BMMSC, 144 h, time 6 day
[13] = Inhibition of IL1-beta induced MMP3 expression levels in human chondrocytes assessed as MMP3 levels incubated for 2hrs followed by IL1-beta stimulation and measured after overnight incubation by LANCE assay relative to control; assay type: functional, Chondrocyte
Chondrocyte [14] = assay: Inhibition of IL1-beta induced MMP3 expression levels in human chondrocytes assessed as MMP3 levels incubated for 2hrs followed by IL1-beta stimulation and measured after 24 hrs by qRT-PCR analysis; assay type: functional; conditions: time 26.0 hrs
[15] = Induction of chondrogenesis in human MSC assessed as maximum activity at 10 nM incubated for 6 days by rhodamine B and Nile red staining based imaging analysis relative to control; assay type: functional; conditions: BMMSC, 144 h, time 6 day
[16] = Induction of chondrogenesis in human MSC assessed as maximum activity at 900 nM incubated for 6 days by rhodamine B and Nile red staining based imaging analysis relative to control; assay type: functional; conditions: BMMSC, 144 h, time 6 day
[17] = Induction of chondrogenesis in human MSC assessed as maximum activity at 30 nM incubated for 6 days by rhodamine B and Nile red staining based imaging analysis relative to control; assay type: functional; conditions: BMMSC, 144 h, time 6 day
[18] = Induction of chondrogenesis in human MSC assessed as maximum activity at 185.19 nM incubated for 6 days by rhodamine B and Nile red staining based imaging analysis relative to control; assay type: functional; conditions: BMMSC, 144 h, time 6 day
[19] = Induction of chondrogenesis in human MSC assessed as maximum activity at 100 nM incubated for 6 days by rhodamine B and Nile red staining based imaging analysis relative to control; assay type: functional; conditions: BMMSC, 144 h, time 6 day
[20] = Induction of chondrogenesis in human MSC assessed as maximum activity at 5000 nM incubated for 6 days by rhodamine B and Nile red staining based imaging analysis relative to control; assay type: functional; conditions: BMMSC, 144 h, time 6 day

Compound | EC50 [1] [µM] | EC50 [6] [µM] | EC50 [7] [µM] | EC50 [11] [µM] | other results
Cc1n[nH]c2cc(F)c(-c3cncc(O[C@H]4CCNC[C@@H]4F)n3)cc12 | 0.006 | 0.63 | – | – | EC50 [2]: 1.3 µM; Activity (Chondrocyte [3]): inactive; EC50 [4]: 0.001 µM; Activity (Chondrocyte [5]): inactive
c1cc2cc(c1)-c1cncc3[nH]c(nc13)-c1n[nH]c3ccc(cc13)-c1cncc(c1)CNC2 | – | 0.0418 | 0.2 | – | Emax at 1.7 µM [8]: 588%
CCC(=O)Nc1cncc(-c2ccc3[nH]nc(-c4nc5c(N6CCCCC6)ccnc5[nH]4)c3n2)c1 | 0.09 | > 10 | – | – | Emax at 0.02058 µM [9]: 38.3%
CCC(=O)Nc1cncc(-c2ccc3[nH]nc(-c4nc5c(-c6cccc(F)c6)ccnc5[nH]4)c3n2)c1 | 0.036 | > 10 | – | – | Emax at 0.06173 µM [10]: 29.3%
O=C(Nc1cc2cc(-c3cncc(N[C@H]4CCNC[C@@H]4F)n3)ccc2cn1)C1CC1 | – | 0.0095 | 2.7 | 3 | EC50 [2]: 0.011 µM; EC50 [4]: 0.001 µM; Emax at 2.7 µM [12]: 68%
O=C(Nc1cncc(-c2ccc3[nH]nc(-c4cc5cnccc5[nH]4)c3c2)c1)C1CCCCC1 | 0.002 | 0.285 | 0.03 | 0.0067 | Imax [13]: 100%; Emax at 2.7 µM [12]: 155%
CN1CCN(c2nccc3[nH]c(-c4n[nH]cc4/C=C/c4cncc(F)c4)nc23)CC1 | 0.01 | 0.325 | – | 3 | Activity (Chondrocyte [14]): inactive; Activity (Chondrocyte [3]): inactive; Emax at 0.01 µM [15]: 39%
CN1CCCn2cc(nn2)-c2nccc3[nH]c(nc23)-c2n[nH]c3ccc(cc23)-c2cncc(c2)C1 | 0.004 | 0.338 | 0.01 | 3.78 | Activity (Chondrocyte [14]): inactive; Activity (Chondrocyte [3]): inactive; Emax at 0.01 µM [15]: 181%
CC(C)C(=O)Nc1cncc(-c2ccc3[nH]nc(-c4nc5c(-c6cccnc6)ccnc5[nH]4)c3n2)c1 | 0.03 | > 10 | – | – | Emax at 0.06173 µM [10]: 26.1%
CN1CCN(c2cc(C(=O)Nc3cc4cc(-c5cnn(C)c5)ccc4cn3)ccn2)CC1 | – | – | – | – | Activity (Chondrocyte [3]): inactive; Emax at 0.01 µM [15]: 27.1%
CCCC(=O)Nc1cncc(-c2ccc3[nH]nc(-c4nc5c(-c6ccsc6)cncc5[nH]4)c3n2)c1 | 0.046 | 3.6 | 0.0206 | – | Emax at 0.02058 µM [9]: 58.4%
Fc1ccc(-c2nnc(-c3n[nH]cc3/C=C/c3cccnc3)o2)cc1 | 0.015 | 1.51 | – | 3 | Activity (Chondrocyte [14]): inactive; Activity (Chondrocyte [3]): inactive; Emax at 0.9 µM [16]: 23.4%
Cc1n[nH]c2ccc(-c3cncc(N[C@H]4CCNC[C@@H]4F)n3)cc12 | 0.001 | 0.0843 | – | – | Activity (Chondrocyte [14]): inactive; EC50 [2]: 0.424 µM; Activity (Chondrocyte [3]): inactive; EC50 [4]: 0.001 µM; Activity (Chondrocyte [5]): inactive; Emax at 0.03 µM [17]: 25.6%
Oc1cncc(-c2ccc3[nH]nc(-c4nc5c(-c6cccc(F)c6)nccc5[nH]4)c3n2)c1 | 0.024 | 0.46 | 0.00686 | – | Emax at 0.18519 µM [18]: 56.7%
CCCC(=O)Nc1cncc(-c2ccc3[nH]nc(-c4nc5c(-c6ccncc6)cncc5[nH]4)c3n2)c1 | 0.013 | 0.999 | – | – | Emax at 0.18519 µM [18]: 31%
CCNCc1cncc(-c2ccc3[nH]nc(-c4nc5c(-c6cc(F)cc(NCCN(C)C)c6)ccnc5[nH]4)c3n2)c1 | 0.008 | > 10 | 0.0206 | – | Emax at 0.02058 µM [9]: 149%

Compound | EC50 [1] [µM] | EC50 [6] [µM] | EC50 [7] [µM] | EC50 [11] [µM] | other results
CN1CCN(c2cc(Nc3ncc4c(-c5ccc6ncccc6c5)c[nH]c4n3)ccn2)CC1 | 0.001 | 0.285 | 0.03 | 9.98 | Activity (Chondrocyte [14]): inactive; Activity (Chondrocyte [3]): inactive; Emax at 0.01 µM [15]: 73.4%
O=C1CCc2cccc(c2)-c2cncc(c2)NC(=O)c2n[nH]c3ccc(cc23)-c2cncc(c2)CN1 | – | > 10 | 0.03 | 0.01 | Activity (Chondrocyte [14]): inactive; Activity (Chondrocyte [3]): inactive; Activity (Chondrocyte [5]): inactive; Emax at 0.03 µM [17]: 69.4%
Cc1n[nH]c2ccc(-c3cncc(OC[C@H](N)Cc4ccccc4)n3)cc12 | 0.004 | 0.256 | 0.03 | – | Activity (Chondrocyte [14]): inactive; Emax at 0.1 µM [19]: 52.1%; Activity (Chondrocyte [3]): inactive; Activity (Chondrocyte [5]): inactive
Oc1cncc(-c2ccc3[nH]nc(-c4nc5c(-c6cccc(F)c6)cncc5[nH]4)c3n2)c1 | 0.031 | > 10 | 0.0206 | – | Emax at 0.02058 µM [9]: 53.6%
COc1cncc(-c2ccc3[nH]nc(-c4nc5c(-c6cccc(F)c6)ccnc5[nH]4)c3n2)c1 | 0.051 | – | – | – | Emax at 0.06173 µM [10]: 47%
Oc1cncc(-c2ccc3[nH]nc(-c4nc5c(-c6cccc(F)c6)ccnc5[nH]4)c3n2)c1 | 0.043 | 0.375 | 0.00229 | – | Emax at 0.02058 µM [9]: 59.3%
CN(C)C(=O)Nc1cncc(-c2cnc3[nH]nc(-c4nc5c(-c6cccc(F)c6)cncc5[nH]4)c3c2)c1 | 0.004 | 0.01 | – | 0.0406 | Emax at 0.9 µM [16]: 68.1%
COc1cncc(C(=O)Nc2c[nH]nc2C(=O)Nc2ccc(N3CCC(F)(F)C3)nc2)c1 | 0.014 | 0.0057 | 0.3 | 0.0022 | EC50 [2]: > 10 µM; Emax at 0.9 µM [16]: 124%
CN1CCCCN(C)c2nccc3[nH]c(nc23)-c2c[nH]c3ccc(cc23)-c2cncc(c2)C1 | 0.002 | 0.577 | 5 | – | EC50 [2]: 0.012 µM; EC50 [4]: 0.002 µM; Emax at 5 µM [20]: 231%
COc1cncc(-c2ccc3[nH]nc(-c4nc5c(-c6cccc(F)c6)cncc5[nH]4)c3n2)c1 | 0.04 | – | 0.0206 | – | Emax at 0.06173 µM [10]: 55.5%
CCNCc1cncc(-c2ccc3[nH]nc(-c4nc5c(-c6cc(F)cc(NCCN(C)C)c6)nccc5[nH]4)c3n2)c1 | 0.012 | > 10 | – | – | Emax at 0.06173 µM [10]: 35.6%
COc1cncc(-c2ccc3[nH]nc(-c4nc5c(-c6cccc(F)c6)nccc5[nH]4)c3n2)c1 | 0.046 | 0.12 | 0.0206 | – | Emax at 0.02058 µM [9]: 60.4%
Fc1cccc(-c2cccc3[nH]c(-c4n[nH]cc4/C=C/c4cncc(CN5CCCC5)c4)nc23)c1 | 0.02 | 0.0821 | 2.7 | 0.0014 | Activity (Chondrocyte [14]): inactive; Emax at 2.7 µM [12]: 81.7%; Activity (Chondrocyte [5]): inactive
Fc1cccc(-c2cncc3[nH]c(-c4n[nH]c5ccc(-c6cn[nH]c6)nc45)nc23)c1 | 0.016 | > 10 | 0.0206 | – | EC50 [2]: > 10 µM; Emax at 0.02058 µM [9]: 51.8%
Cn1cc(-c2cc3c(C(=O)Nc4ccc(CN5CCCC5)cc4)n[nH]c3cc2F)cn1 | 0.001 | 0.242 | – | 3 | Activity (Chondrocyte [14]): inactive; Emax at 0.1 µM [19]: 27.4%; Activity (Chondrocyte [5]): inactive
O=C(Nc1cccnc1)c1n[nH]c2ccc(-c3cncc(CN4CC5CC(C4)O5)c3)cc12 | – | 0.067 | 0.9 | 3 | Emax at 0.9 µM [16]: 121%
